Legend:
[1] = test system: Streptococcus cricetus LWP 760; test: Bacteriocin 760 production with signal peptide under scaled-up conditions (bioreactor); type: cell-based; details: V-61 reactor, 10% Brucella Broth, LWP 760, LWP 320, peptide 0.22 mg added after two hours, pH 6.9, 37° C., 12 hours
[2] = test system: Enterococcus faecium LWP 50-52; test: Influence of signal peptide on bacteriocin 50-52 production, flask culture (fraction protein at 215 nm, activity by spot-test against C. jejuni and S. enteritidis); type: cell-based
[3] = LWP 50-52 + LWP 320, LWP 760 peptide 0.1 mg/ml

WNKYKTNWVLSVCNTGCACAAVKGLT (listed as Streptococcus cricetus) [LWP 760 Signal Peptide, signal peptide isolated from Streptococcus cricetus LWP 760, stimulates bacteriocin 760 production]
Activity [1]: 13,107,200 AU/ml
Increase in the amount of protein produced vs. in control [1]: 4.25
Protein Concentration [1]: 3.4 mg/mL
Protein produced per one liter of medium [1]: 510 mg
Specific Activity [1]: 3,855,058 AU/mg
Activity [2, 3]: 819,200 AU/ml
Protein Concentration [2, 3]: 0.25 mg/mL
Protein increase vs. Control [2, 3]: 1
Specific Activity [2, 3]: 3,276,800 AU/mg
mg protein/liter [2, 3]: 82.5 mg protein/liter
yield of bacteriocin 50-52 versus the control ([2]; signal peptide of another strain added to LWP 50-52 + LWP 320): did not increase
